Results as given in the NIST ThermoML archive (doi:10.1016/j.jct.2017.09.022).
Values joined by “and” are separate entries in the source; they are usually repeats but may differ in a detail not shown here. Identical values can stand only once.

Assay: molar heat capacity at constant pressure
Conditions: 101.33 kPa, Crystal, Small (less than 1 g) adiabatic calorimetry

C[C@@H](O)[C@H](N)C(=O)O [L-threonine]
Conditions | molar heat capacity at constant pressure
5 K | 0.06402 J/K/mol
7.37 K | 0.2004 J/K/mol
7.65 K | 0.2303 J/K/mol
8.44 K | 0.3068 J/K/mol
9.19 K | 0.3958 J/K/mol
9.43 K | 0.4407 J/K/mol
9.67 K | 0.4739 J/K/mol
9.9 K | 0.4922 J/K/mol
10 K | 0.5155 J/K/mol
10.18 K | 0.5729 J/K/mol
10.51 K | 0.6643 J/K/mol
10.84 K | 0.7242 J/K/mol
11.17 K | 0.8156 J/K/mol
11.5 K | 0.9129 J/K/mol
11.83 K | 0.9969 J/K/mol
12.17 K | 1.113 J/K/mol
12.51 K | 1.243 J/K/mol
12.84 K | 1.353 J/K/mol
13.18 K | 1.481 J/K/mol
13.53 K | 1.619 J/K/mol
13.87 K | 1.76 J/K/mol
14.22 K | 1.913 J/K/mol
14.57 K | 2.065 J/K/mol
14.92 K | 2.237 J/K/mol
15 K | 2.278 J/K/mol
15.27 K | 2.377 J/K/mol
15.62 K | 2.567 J/K/mol
15.97 K | 2.765 J/K/mol
16.32 K | 2.985 J/K/mol
16.68 K | 3.152 J/K/mol
17.04 K | 3.354 J/K/mol
17.4 K | 3.602 J/K/mol
17.76 K | 3.807 J/K/mol
18.11 K | 4.063 J/K/mol
18.48 K | 4.285 J/K/mol
18.83 K | 4.521 J/K/mol
19.2 K | 4.803 J/K/mol
19.56 K | 5.051 J/K/mol
19.93 K | 5.331 J/K/mol
20 K | 5.346 J/K/mol
20.52 K | 5.738 J/K/mol
21.27 K | 6.302 J/K/mol
22.01 K | 6.89 J/K/mol
22.77 K | 7.515 J/K/mol
23.52 K | 8.157 J/K/mol
24.28 K | 8.822 J/K/mol
25 K | 9.478 J/K/mol
25.04 K | 9.545 J/K/mol
25.8 K | 10.28 J/K/mol
26.57 K | 10.94 J/K/mol
27.34 K | 11.62 J/K/mol
28.11 K | 12.31 J/K/mol
28.88 K | 13.09 J/K/mol
29.66 K | 13.84 J/K/mol
30 K | 14.22 J/K/mol
30.44 K | 14.63 J/K/mol
31.22 K | 15.38 J/K/mol
32.01 K | 16.18 J/K/mol
32.79 K | 16.94 J/K/mol
33.58 K | 17.68 J/K/mol
34.37 K | 18.37 J/K/mol
35 K | 19.04 J/K/mol
35.15 K | 19.16 J/K/mol
35.94 K | 19.87 J/K/mol
36.73 K | 20.63 J/K/mol
37.52 K | 21.36 J/K/mol
38.32 K | 22.06 J/K/mol
39.11 K | 22.79 J/K/mol
39.9 K | 23.46 J/K/mol
40 K | 23.61 J/K/mol
40.69 K | 24.2 J/K/mol
41.48 K | 24.95 J/K/mol
42.28 K | 25.65 J/K/mol
43.08 K | 26.38 J/K/mol
43.88 K | 27.09 J/K/mol
44.68 K | 27.83 J/K/mol
45 K | 28.02 J/K/mol
45.48 K | 28.52 J/K/mol
46.27 K | 29.22 J/K/mol
47.07 K | 29.92 J/K/mol
47.87 K | 30.56 J/K/mol
48.67 K | 31.17 J/K/mol
49.47 K | 31.85 J/K/mol
50 K | 32.34 J/K/mol
50.27 K | 32.5 J/K/mol
51.07 K | 33.12 J/K/mol
51.88 K | 33.83 J/K/mol
52.68 K | 34.53 J/K/mol
53.48 K | 35.28 J/K/mol
54.29 K | 36.14 J/K/mol
55.09 K | 36.92 J/K/mol
55.9 K | 37.74 J/K/mol
56.7 K | 38.35 J/K/mol
57.51 K | 38.9 J/K/mol
58.32 K | 39.21 J/K/mol
59.12 K | 39.75 J/K/mol
59.93 K | 40.38 J/K/mol
60 K | 40.57 J/K/mol
60.74 K | 41.01 J/K/mol
61.55 K | 41.64 J/K/mol
62.35 K | 42.25 J/K/mol
63.15 K | 42.88 J/K/mol
63.96 K | 43.87 J/K/mol
64.76 K | 44.47 J/K/mol
65.57 K | 44.98 J/K/mol
66.38 K | 45.55 J/K/mol
67.19 K | 46.09 J/K/mol
67.99 K | 46.67 J/K/mol
68.8 K | 47.24 J/K/mol
69.61 K | 47.68 J/K/mol
70 K | 48.06 J/K/mol
70.54 K | 48.31 J/K/mol
71.58 K | 49.14 J/K/mol
72.63 K | 49.7 J/K/mol
73.67 K | 50.33 J/K/mol
74.72 K | 50.78 J/K/mol
75.77 K | 51.34 J/K/mol
76.82 K | 51.96 J/K/mol
77.87 K | 52.51 J/K/mol
78.92 K | 53.08 J/K/mol
79.65 K | 53.03 J/K/mol
79.97 K | 53.66 J/K/mol
80 K | 53.55 J/K/mol
80.45 K | 53.52 J/K/mol
81.02 K | 54.31 J/K/mol
81.25 K | 53.96 J/K/mol
82.06 K | 54.87 J/K/mol and 54.48 J/K/mol
82.86 K | 54.97 J/K/mol
83.11 K | 55.52 J/K/mol
83.66 K | 55.42 J/K/mol
84.17 K | 56.16 J/K/mol
84.46 K | 55.88 J/K/mol
85.26 K | 56.34 J/K/mol
86.06 K | 56.87 J/K/mol
86.86 K | 57.38 J/K/mol
87.65 K | 57.86 J/K/mol
88.45 K | 58.33 J/K/mol
89.25 K | 58.77 J/K/mol
90 K | 59.28 J/K/mol
90.05 K | 59.23 J/K/mol
90.85 K | 59.72 J/K/mol
91.64 K | 60.19 J/K/mol
92.44 K | 60.74 J/K/mol
93.24 K | 61.3 J/K/mol
94.04 K | 61.77 J/K/mol
94.84 K | 62.19 J/K/mol
95.63 K | 62.65 J/K/mol
96.43 K | 63.12 J/K/mol
97.23 K | 63.64 J/K/mol
98.02 K | 64.16 J/K/mol
98.82 K | 64.62 J/K/mol
99.62 K | 65.04 J/K/mol
100 K | 65.27 J/K/mol
100.5 K | 65.53 J/K/mol
101.45 K | 66.12 J/K/mol
102.41 K | 66.61 J/K/mol
103.36 K | 67.11 J/K/mol
104.32 K | 67.67 J/K/mol
105.27 K | 68.2 J/K/mol
106.22 K | 68.79 J/K/mol
107.18 K | 69.35 J/K/mol
108.13 K | 69.83 J/K/mol
109.09 K | 70.36 J/K/mol
110 K | 70.84 J/K/mol
110.05 K | 70.8 J/K/mol
111 K | 71.32 J/K/mol
111.95 K | 71.94 J/K/mol
112.91 K | 72.42 J/K/mol
113.86 K | 72.95 J/K/mol
114.82 K | 73.43 J/K/mol
115.77 K | 73.97 J/K/mol
116.72 K | 74.36 J/K/mol
117.68 K | 74.92 J/K/mol
118.63 K | 75.5 J/K/mol
119.59 K | 75.89 J/K/mol
120 K | 76.16 J/K/mol
120.53 K | 76.35 J/K/mol
121.49 K | 76.8 J/K/mol
122.44 K | 77.45 J/K/mol
123.39 K | 77.91 J/K/mol
124.35 K | 78.3 J/K/mol
125.3 K | 78.8 J/K/mol
126.25 K | 79.27 J/K/mol
127.21 K | 79.82 J/K/mol
128.16 K | 80.26 J/K/mol
129.11 K | 80.78 J/K/mol
130 K | 81.23 J/K/mol
130.07 K | 81.26 J/K/mol
131.02 K | 81.7 J/K/mol
131.97 K | 82.11 J/K/mol
132.93 K | 82.72 J/K/mol
133.87 K | 83.14 J/K/mol
134.82 K | 83.73 J/K/mol
135.76 K | 84.14 J/K/mol
136.71 K | 84.56 J/K/mol
137.66 K | 85.22 J/K/mol
138.61 K | 85.64 J/K/mol
139.56 K | 85.97 J/K/mol
140 K | 86.22 J/K/mol
140.51 K | 86.55 J/K/mol
141.46 K | 87.05 J/K/mol
142.41 K | 87.47 J/K/mol
143.36 K | 87.8 J/K/mol
144.31 K | 88.38 J/K/mol
